# According to patent publication US11957671B2, “Benzodioxane modulators of leukotriene A4 hydrolase (LTA4H) for prevention and treatment of aging-associated diseases” (Alkahest, Inc., priority 2021, dated 2024):
# Legend:
# aged mice = test: CA1 synapse density by histology; format: in vivo, mouse; conditions: preliminary data, pre- and post-synaptic protein staining
# [1] = tested on: aged wild type (WT; C57BL/6) mice; test: Contextual Fear Conditioning (CFC); format: in vivo, mouse; conditions: 10 mg/kg PO daily, after 8 days of treatment
# Description: Mice were brought into the testing room immediately before their trial to avoid exposure to sounds and scents from testing. Day 1: For training, mice were placed in the chambers, bright house light and fan on, for 2 minutes. Then an auditory cue (2000 Hz, 70 dB, conditioned stimulus (CS)) was presented for 30 seconds. A 2 second foot shock (0.6 mA; unconditioned stimulus (US)) was administered for the final 2 seconds of the CS. This procedure was repeated once, each after a 2-minute interval, and the mouse was removed from the chamber 30 seconds after the second shock. The pans, chamber walls and grid floors were cleaned with 70% ethanol between trials. Day 2: […] after the training, the mouse was returned to the same chamber in which the training occurred (memory for context), and freezing behavior was recorded for 3 min. The mouse was returned to its home cage. The pans, chamber walls, and grid floors were cleaned with 70% ethanol between trials. Day 3: 24 hours after context testing, the mouse was returned to the same chamber and freezing was recorded in a novel environment (altered context) and in response to the cue (memory for cue). […] The mouse was placed in the novel environment and freezing was recorded for 2 minutes. The auditory cue (2000 Hz, 70 dB, CS) was then presented for 30 seconds, and freezing was again recorded for 2 minutes. […]
# [2] = tested on: synthesis of LTB4 in human whole blood; test: human whole blood (HWB) assay, LTB4 production inhibition; format: cell-based; conditions: calcimycin 20 μM
# Description: The compounds of the invention are additionally tested in a human whole blood (HWB) assay to determine their ability to inhibit the synthesis of LTB4 in a cellular system. Compounds are combined with heparinized human whole blood and incubated for 15 minutes at 37° C. Calcimycin (20 μM final, prepared in phosphate-buffered saline, pH 7.4) is then added and the mixture is incubated for another 30 minutes at 37° C. The samples are centrifuged for 5 min at low speed (1500×g) and the plasma layer is removed. Plasma LTB4 concentrations are then measured using an antibody-based homogenous time-resolved fluorescence method (CisBio, Bedford, Mass.). In general, the preferred potency range (IC50) of compounds in the HWB assay is between 10 nM to 10 μM, the more preferred potency range is 10 nM to 1 μM, and the most preferred potency range is 10 nM to 100 nM.
# [3] = tested on: aged wild type (WT; C57BL/6) mice; test: qPCR of hippocampal gene expression; format: in vivo, mouse
# Description: Brains were collected following saline perfusion and separated by mid-sagittal slice with one-half dissected into hippocampus and cortex and then snap frozen on dry ice. RNA was isolated from brain tissue using the RNAeasy Qiagen Kit according to the manufacturer's instruction, briefly, tissue was homogenized using an Omni Bead Ruptor in RLT buffer, RNA was bound to RNA isolation column, washed and eluted. Contaminating DNA was removed by DNAse digestion and cDNA was generated using the Life Technologies SuperScript III Kit. A master mix for qPCR was made using the appropriate forward and reverse primers, and SYBR green reagent or TaqMan reagent. The reaction was run on a Life Technologies QuantStudio Real-Time PCR System and analyzed using the std ddCT protocol on the QuantStudio6 software.
# Three independent cohorts of aged wild type (WT; C57BL/6) mice between twenty to twenty-two months of age (20-22 mo) were homogenized into two (2) groups by body weight, total distance travelled in the open field test, and average velocity in the open field test. Group 1 was administered vehicle control PO daily. Group 2 was administered 10 mg/kg of the LTA4H inhibitor Compound 1 PO daily. Both groups were dosed for either 10 days or 4 weeks daily. Behavioral assays were run during the last week of dosing and animals were sacrificed at the end of the study for histological and molecular assays.
# [4] = tested on: Transgenic Notch3R169C mice; test: CADASIL Mouse Model, Example 10; format: in vivo; conditions: 1 mg/kg PO bid for four months
# Description: Transgenic Notch3^R169C mice are obtained along with transgenic Notch3^WT and/or wild type mice as described previously (Ghosh M, et al., Ann Neurol., 78(6):887-900 (2015); Rajani R M, et al., Acta Neuropathologica Comm., 7(187) (2019); and Joutel A, et al., J. Clin. Invest., 120(2):433-45 (2010), herein incorporated by reference in their entirety). Twenty Notch3R169c mice and 10 littermate control 5-month-old wild type mice are dosed with Vehicle or Compound 1 at 1 mg/kg PO bid for four months. Mice are anesthetized and blood and tissues are collected for further analysis.
# Transgenic Notch3^R169C mice treated with Vehicle or Compound as described previously in section A (Experimental Procedures supra) have blood collected via cardiac puncture in syringes pre-filled with Heparin. Brains are collected following saline and Heparin infusion and separated by mid-sagittal slice. One half of the brain is drop fixed in 4% PFA and 24 hours later, the brain is changed into a solution of 15% sucrose. A secondary change to 30% sucrose is performed 48 hours after initial fixation in PFA.
# Brains are then sectioned to 50 micrometers in thickness using a vibratome and placed on a slide for immunostaining and stained with PDGFRβ and LECTIN antibodies as described previously (Ghosh supra) to show pericyte coverage. The number of PDGFRβ positive pericytes per square millimeter of selected field area in the cortex is analyzed by randomly selecting four fields in nonadjacent sections at approximately 100 μm intervals.
# Albumin and fibrinogen presence is measured as a positive signal in the brain parenchyma. The signals are quantified as described previously (Ghosh supra). Transgenic mice treated with Vehicle has increased albumin and fibrinogen leakiness into the brain parenchyma compared to Vehicle treated wild-type controls.
# GFAP and AQP4 markers for astrocytes are measured to determine the presence of astrocyte end-feet. Transgenic mice treated with Vehicle is reduced GFAP and AQP4 compared with Vehicle treated wild-type controls. […] AQP4 and GFAP are markers for astrocyte, which make up an important part of the neurovascular unit and are lost in CADASIL mouse models and human patients.
# aged C57BL6 mice = test: Inverted Wire Hang; format: in vivo, mouse; conditions: 12 days of dosing
# Description: Mice were brought into the experimental room for at least 20 minutes of acclimation to the experimental room conditions (bright lighting) prior to testing. Each mouse was placed in the center of the grid. Then swiftly in one continuous motion the grid was inverted 180 degrees to suspend the mouse upside down with their nose being the last part of the mouse to be suspended. The timer was started once the mouse was completely suspended and time to fall was recorded. Mice were tested 3 times with no rest period between each test with a maximum suspension time of 120 seconds. The maximum and average time to fall were scored for each animal.
smiles,measurement,setting,value
"O=C(O)C1CCN(Cc2ccc([C@H]3COc4ccccc4O3)cc2)CC1 [Example 1, 1-{4-[(2S)-2,3-dihydro-1,4-benzodioxin-2-yl]benzyl}piperidine-4-carboxylic acid]",synapse density in the CA1 region of the hippocampus,aged mice,trends towards increasing synapse density
same,percent time freezing during testing phase of CFC,[1],increased freezing time
same,IC50,[2],179 nM
same,dcx hippocampal gene expression,[3]; 4 weeks of dosing,increased dcx hippocampal gene expression
same,h2d1 hippocampal gene expression,[3]; 10 days and 4 weeks of dosing,trends towards reduced h2d1 hippocampal gene expression
same,creb1 hippocampal gene expression,[3]; 10 days of dosing,increased creb1 hippocampal gene expression
same,egr1 hippocampal gene expression,[3]; 10 days of dosing,increased egr1 hippocampal gene expression
same,iba1 hippocampal gene expression,[3]; 10 days of dosing,trends towards reduced iba1 hippocampal gene expression
same,il1b hippocampal gene expression,[3]; 10 days of dosing,trends towards reduced il1b hippocampal gene expression
same,GFAP and AQP4 signal at vessels in the cortex,[4],increased positive signal at Lectin-positive vessels
same,additional blood-brain barrier markers in cortices,[4],significant levels of improvement
same,albumin and fibrinogen in brain parenchyma,[4],reduced albumin and fibrinogen
same,plasma levels of LTB4,[4],reduction in plasma levels of LTB4
same,pericyte coverage and number in cortex,[4]; versus vehicle-treated transgenic mice,increase in pericyte coverage and number
same,maximum hang time in the wire hang test,aged C57BL6 mice,no change in maximum hang time
